Values joined by “and” are separate entries in the source; they are usually repeats but may differ in a detail not shown here. Equal values may be shown once. Inconclusive results and toxic doses are left out.
System: L1210 leukemia ip in BDF1 mice, survival T/C
Experiment: NCI In Vivo Anticancer Drug Screen. Data for tumor model L1210 Leukemia (intraperitoneal) in B6D2F1 (BDF1) mice
Details: endpoint: mean survival time, higher = longer survival
Method in brief: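 Tumor was transplanted into mice, which were then dosed with test compound or vehicle alone. Survival was recorded for each group, and the treated figure was expressed relative to the control figure.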

[1] = dose: 100.0 mg/kg/injection, schedule: Q04DX003 (ip), vehicle: saline
[2] = dose: 100.0 mg/kg/injection, schedule: Q01DX009 (ip), vehicle: Klucel (hydroxypropylcellulose) (HPC)
[3] = dose: 100.0 mg/kg/injection, schedule: Q04DX003 (ip), vehicle: Klucel (hydroxypropylcellulose) (HPC)
[4] = dose: 200.0 mg/kg/injection, schedule: Q01DX009 (ip), vehicle: Klucel (hydroxypropylcellulose) (HPC)
[5] = dose: 200.0 mg/kg/injection, schedule: Q04DX003 (ip), vehicle: Klucel (hydroxypropylcellulose) (HPC)
[6] = dose: 400.0 mg/kg/injection, schedule: Q01DX009 (ip), vehicle: Klucel (hydroxypropylcellulose) (HPC)
[7] = dose: 400.0 mg/kg/injection, schedule: Q04DX003 (ip), vehicle: Klucel (hydroxypropylcellulose) (HPC)
[8] = dose: 100.0 mg/kg/injection, schedule: Q04DX003 (ip), vehicle: saline with Tween-80
[9] = dose: 200.0 mg/kg/injection, schedule: Q04DX003 (ip), vehicle: saline with Tween-80
[10] = dose: 400.0 mg/kg/injection, schedule: Q04DX003 (ip), vehicle: saline with Tween-80
[11] = dose: 100.0 mg/kg/injection, schedule: Q01DX001 (ip), vehicle: saline
[12] = dose: 200.0 mg/kg/injection, schedule: Q01DX001 (ip), vehicle: saline
[13] = dose: 400.0 mg/kg/injection, schedule: Q01DX001 (ip), vehicle: saline
[14] = dose: 100.0 mg/kg/injection, schedule: Q01DX009 (ip), vehicle: saline with Tween-80
[15] = dose: 200.0 mg/kg/injection, schedule: Q01DX009 (ip), vehicle: saline with Tween-80
[16] = dose: 400.0 mg/kg/injection, schedule: Q01DX009 (ip), vehicle: saline with Tween-80

## CN1CCN=C(c2ccccc2)c2cc(Cl)ccc21
dose: 6.25 mg/kg/injection, schedule: Q01DX009 (ip), vehicle: saline
  T/C: 110 % of control
dose: 12.5 mg/kg/injection, schedule: Q01DX009 (ip), vehicle: saline
  T/C: 101 % of control
dose: 25.0 mg/kg/injection, schedule: Q01DX009 (ip), vehicle: saline
  T/C: 94 % of control
dose: 25.0 mg/kg/injection, schedule: Q04DX003 (ip), vehicle: saline
  T/C: 93 % of control
dose: 50.0 mg/kg/injection, schedule: Q01DX009 (ip), vehicle: saline
  T/C: 100 % of control
dose: 50.0 mg/kg/injection, schedule: Q04DX003 (ip), vehicle: saline
  T/C: 93 % of control
dose: 100.0 mg/kg/injection, schedule: Q01DX009 (ip), vehicle: saline
  T/C: 95 % of control
[1]
  T/C: 98 % of control

## O=C(O)c1cc(I)cc(Br)c1I
dose: 100.0 mg/kg/injection, schedule: Q04DX002 (ip), vehicle: Klucel (hydroxypropylcellulose) (HPC)
  T/C: 102 % of control
dose: 200.0 mg/kg/injection, schedule: Q04DX002 (ip), vehicle: Klucel (hydroxypropylcellulose) (HPC)
  T/C: 110 % of control
dose: 400.0 mg/kg/injection, schedule: Q04DX002 (ip), vehicle: Klucel (hydroxypropylcellulose) (HPC)
  T/C: 105 % of control

## CCN=C(NCC)c1ccc(NC(=O)c2ccc(C(=O)Nc3ccc(C(=NCC)NCC)cc3)cc2)cc1
dose: 7.5 mg/kg/injection, schedule: Q01DX010 (oral), vehicle: saline
  T/C: 98 % of control
dose: 7.5 mg/kg/injection, schedule: Q01DX Z (ip), vehicle: saline
  T/C: 204 % of control
dose: 15.0 mg/kg/injection, schedule: Q01DX010 (oral), vehicle: saline
  T/C: 95 % of control
dose: 15.0 mg/kg/injection, schedule: Q01DX Z (ip), vehicle: saline
  T/C: 106 % of control and 109 % of control
dose: 30.0 mg/kg/injection, schedule: Q01DX010 (oral), vehicle: saline
  T/C: 91 % of control
dose: 125.0 mg/kg/injection, schedule: Q01DX Z (oral), vehicle: saline
  T/C: 98 % of control
dose: 125.0 mg/kg/injection, schedule: Q## X010 (oral), vehicle: saline
  T/C: 108 % of control
dose: 250.0 mg/kg/injection, schedule: Q01DX Z (oral), vehicle: saline
  T/C: 96 % of control
dose: 250.0 mg/kg/injection, schedule: Q## X010 (oral), vehicle: saline
  T/C: 123 % of control
dose: 500.0 mg/kg/injection, schedule: Q01DX Z (oral), vehicle: saline
  T/C: 109 % of control

## O=C(Nc1cccc(C(F)(F)F)c1)N(CCO)Cc1ccccc1
dose: 100.0 mg/kg/injection, schedule: Q01DX001 (ip), vehicle: Klucel (hydroxypropylcellulose) (HPC)
  T/C: 104 % of control
[2]
  T/C: 100 % of control and 109 % of control
[3]
  T/C: 103 % of control
dose: 200.0 mg/kg/injection, schedule: Q01DX001 (ip), vehicle: Klucel (hydroxypropylcellulose) (HPC)
  T/C: 105 % of control
[4]
  T/C: 100 % of control and 114 % of control
[5]
  T/C: 99 % of control
dose: 400.0 mg/kg/injection, schedule: Q01DX001 (ip), vehicle: Klucel (hydroxypropylcellulose) (HPC)
  T/C: 102 % of control
[6]
  T/C: 93 % of control and 107 % of control
[7]
  T/C: 95 % of control

## O=C(/C=C(\CBr)c1ccc(-c2ccccc2)cc1)c1ccccc1
dose: 50.0 mg/kg/injection, schedule: Q01DX001 (ip), vehicle: saline with Tween-80
  T/C: 92 % of control
dose: 100.0 mg/kg/injection, schedule: Q01DX001 (ip), vehicle: saline with Tween-80
  T/C: 87 % of control and 89 % of control
dose: 200.0 mg/kg/injection, schedule: Q01DX001 (ip), vehicle: saline with Tween-80
  T/C: 91 % of control
dose: 400.0 mg/kg/injection, schedule: Q01DX001 (ip), vehicle: saline with Tween-80
  T/C: 94 % of control

## Cn1ncn(/N=C/c2ccc([N+](=O)[O-])o2)c1=O
dose: 12.5 mg/kg/injection, schedule: Q01DX009 (ip), vehicle: other
  T/C: 91 % of control
dose: 25.0 mg/kg/injection, schedule: Q01DX009 (ip), vehicle: other
  T/C: 93 % of control
dose: 50.0 mg/kg/injection, schedule: Q01DX009 (ip), vehicle: other
  T/C: 91 % of control
dose: 100.0 mg/kg/injection, schedule: Q01DX009 (ip), vehicle: other
  T/C: 87 % of control
dose: 200.0 mg/kg/injection, schedule: Q01DX009 (ip), vehicle: other
  T/C: 87 % of control

## O=[N+]([O-])c1cc[n+]([O-])c2sccc12
[8]
  T/C: 100 % of control
[9]
  T/C: 109 % of control
[10]
  T/C: 108 % of control

## Cc1[nH]c2c(C)ccc(C)c2c(=O)c1Br
dose: 100.0 mg/kg/injection, schedule: Q01DX001 (ip), vehicle: other
  T/C: 91 % of control
dose: 200.0 mg/kg/injection, schedule: Q01DX001 (ip), vehicle: other
  T/C: 94 % of control
dose: 400.0 mg/kg/injection, schedule: Q01DX001 (ip), vehicle: other
  T/C: 86 % of control

## COc1ccc2c(c1)CCCCC2=O
dose: 50.0 mg/kg/injection, schedule: Q01DX001 (ip), vehicle: carboxymethylcellulose (CMC)
  T/C: 105 % of control
dose: 100.0 mg/kg/injection, schedule: Q01DX001 (ip), vehicle: carboxymethylcellulose (CMC)
  T/C: 102 % of control
dose: 200.0 mg/kg/injection, schedule: Q01DX001 (ip), vehicle: carboxymethylcellulose (CMC)
  T/C: 100 % of control
dose: 400.0 mg/kg/injection, schedule: Q01DX001 (ip), vehicle: carboxymethylcellulose (CMC)
  T/C: 102 % of control

## O=C1CCC=C(c2cccc([N+](=O)[O-])c2)O1
[3]
  T/C: 100 % of control
[5]
  T/C: 94 % of control
[7]
  T/C: 94 % of control

## CC(C)(C)C1([Si](C)(C)C)SCCCS1
dose: 100.0 mg/kg/injection, schedule: Q04DX002 (ip), vehicle: other
  T/C: 114 % of control
dose: 200.0 mg/kg/injection, schedule: Q04DX002 (ip), vehicle: other
  T/C: 108 % of control
dose: 400.0 mg/kg/injection, schedule: Q04DX002 (ip), vehicle: other
  T/C: 101 % of control

## CC(C)=CC(=O)OC1C2C(CC(C)C3C(O)CC(=O)C13C)OC(=O)C2C (configuration not stated)
[11]
  T/C: 107 % of control
[12]
  T/C: 100 % of control
[13]
  T/C: 97 % of control

## Cn1c(=O)c2c(ncn2CCSc2nnnc3ccccc23)n(C)c1=O
[1]
  T/C: 98 % of control
dose: 200.0 mg/kg/injection, schedule: Q04DX003 (ip), vehicle: saline
  T/C: 93 % of control
dose: 400.0 mg/kg/injection, schedule: Q04DX003 (ip), vehicle: saline
  T/C: 94 % of control

## O=C(c1ccco1)C1Cc2ccccc2C1=O (configuration not stated)
[2]
  T/C: 95 % of control
dose: 100.0 mg/kg/injection, schedule: Q04DX003 (ip), vehicle: alcohol
  T/C: 109 % of control
[4]
  T/C: 94 % of control
dose: 200.0 mg/kg/injection, schedule: Q04DX003 (ip), vehicle: alcohol
  T/C: 104 % of control
[6]
  T/C: 97 % of control
dose: 400.0 mg/kg/injection, schedule: Q04DX003 (ip), vehicle: alcohol
  T/C: 103 % of control

## O=C(Nc1ccc(Cl)cc1Cl)OCCOc1ccc([N+](=O)[O-])cc1
dose: 50.0 mg/kg/injection, schedule: Q01DX009 (ip), vehicle: saline with Tween-80
  T/C: 102 % of control
[14]
  T/C: 98 % of control
[15]
  T/C: 93 % of control

## O=C(c1ccccc1)c1cccc(Cl)c1
dose: 50.0 mg/kg/injection, schedule: Q01DX009 (ip), vehicle: Klucel (hydroxypropylcellulose) (HPC)
  T/C: 105 % of control
[11]
  T/C: 98 % of control
[2]
  T/C: 101 % of control
[12]
  T/C: 96 % of control
[4]
  T/C: 100 % of control
[13]
  T/C: 93 % of control

## O=C1OCC/C1=C1\CCCO1
[14]
  T/C: 93 % of control
[15]
  T/C: 100 % of control
[16]
  T/C: 96 % of control

## O=C1OC(c2cccc([N+](=O)[O-])c2)=N/C1=C\c1ccccc1
[14]
  T/C: 94 % of control
[15]
  T/C: 102 % of control
[16]
  T/C: 94 % of control

## COc1ccc([I+]c2ccccc2C(=O)[O-])cc1OC
dose: 50.0 mg/kg/injection, schedule: Q01DX001 (ip), vehicle: saline
  T/C: 98 % of control
[11]
  T/C: 96 % of control
[12]
  T/C: 104 % of control
[13]
  T/C: 98 % of control

## Cc1ccc(S(=O)(=O)OCC2CC3CCC2C3)cc1 (configuration not stated)
dose: 100.0 mg/kg/injection, schedule: Q04DX003 (ip), vehicle: other
  T/C: 91 % of control
dose: 200.0 mg/kg/injection, schedule: Q04DX003 (ip), vehicle: other
  T/C: 94 % of control
dose: 400.0 mg/kg/injection, schedule: Q04DX003 (ip), vehicle: other
  T/C: 98 % of control

## COC(=O)c1nc(C(=O)OC)c(C(=O)OC)nc1C(=O)OC
[8]
  T/C: 88 % of control
[9]
  T/C: 93 % of control
[10]
  T/C: 102 % of control

Source: PubChem BioAssay AID248 (DTP/NCI, 2004)
